ChEMBL document CHEMBL3046635, “Synthesis and Herbicidal Activity of New Pyrazole-4-carboxamide Derivatives” (J Pestic Sci, 2004)
Calls of active or inactive are those of the source.

Legend:
[1] = test system: Oryza sativa; experiment: Phytotoxicity against Oryza sativa cv. Koshihikari (rice) at 2000 g a.i/ha measured after 14 days; type: organism-based; conditions: in vivo, 336 h
[2] = test system: Echinochloa oryzicola; experiment: Pre-emergence herbicidal activity against Echinochloa oryzicola at 2000 g a.i/ha measured after 14 days; type: functional, organism-based
[3] = test system: Eleocharis acicularis; experiment: Post-emergence herbicidal activity against Eleocharis acicularis assessed as bleaching of stem/leaf parts; type: functional, organism-based; also: test concentration or dose not given here
[4] = test system: Eleocharis acicularis; experiment: Pre-emergence herbicidal activity against Eleocharis acicularis assessed as bleaching of stem/leaf parts; type: functional, organism-based
[5] = test system: Ammannia multiflora; experiment: Pre-emergence herbicidal activity against Ammannia multiflora assessed as bleaching of stem/leaf parts; type: functional, organism-based
[6] = test system: Rotala indica; experiment: Pre-emergence herbicidal activity against Rotala indica assessed as bleaching of stem/leaf parts; type: functional, organism-based
[7] = test system: Elatine triandra; experiment: Pre-emergence herbicidal activity against Elatine triandra assessed as bleaching of stem/leaf parts; type: functional, organism-based
[8] = test system: Lindernia procumbens; experiment: Pre-emergence herbicidal activity against Lindernia procumbens assessed as bleaching of stem/leaf parts; type: functional, organism-based
[9] = test system: Schoenoplectiella juncoides; experiment: Pre-emergence herbicidal activity against Schoenoplectiella juncoides assessed as bleaching of stem/leaf parts; type: functional, organism-based
[10] = test system: Pontederia vaginalis; experiment: Pre-emergence herbicidal activity against Monochoria vaginalis assessed as bleaching of stem/leaf parts; type: functional, organism-based
[11] = test system: Cyperus difformis; experiment: Pre-emergence herbicidal activity against Cyperus difformis assessed as bleaching of stem/leaf parts; type: functional, organism-based
[12] = test system: Echinochloa oryzicola; experiment: Pre-emergence herbicidal activity against Echinochloa oryzicola assessed as bleaching of stem/leaf parts; type: functional, organism-based
[13] = test system: Ammannia multiflora; experiment: Post-emergence herbicidal activity against Ammannia multiflora assessed as bleaching of stem/leaf parts; type: functional, organism-based; also: test concentration or dose not given here
[14] = test system: Elatine triandra; experiment: Post-emergence herbicidal activity against Elatine triandra assessed as bleaching of stem/leaf parts; type: functional, organism-based; also: test concentration or dose not given here
[15] = test system: Rotala indica; experiment: Post-emergence herbicidal activity against Rotala indica assessed as bleaching of stem/leaf parts; type: functional, organism-based; also: test concentration or dose not given here
[16] = test system: Schoenoplectiella juncoides; experiment: Post-emergence herbicidal activity against Schoenoplectiella juncoides assessed as bleaching of stem/leaf parts; type: functional, organism-based; also: test concentration or dose not given here
[17] = test system: Lindernia procumbens; experiment: Post-emergence herbicidal activity against Lindernia procumbens assessed as bleaching of stem/leaf parts; type: functional, organism-based; also: test concentration or dose not given here
[18] = test system: Pontederia vaginalis; experiment: Post-emergence herbicidal activity against Monochoria vaginalis assessed as bleaching of stem/leaf parts; type: functional, organism-based; also: test concentration or dose not given here
[19] = test system: Cyperus difformis; experiment: Post-emergence herbicidal activity against Cyperus difformis assessed as bleaching of stem/leaf parts; type: functional, organism-based; also: test concentration or dose not given here
[20] = test system: Echinochloa oryzicola; experiment: Post-emergence herbicidal activity against Echinochloa oryzicola assessed as bleaching of stem/leaf parts; type: functional, organism-based; also: test concentration or dose not given here
[21] = test system: Eleocharis acicularis; experiment: Pre-emergence herbicidal activity against Eleocharis acicularis at 2000 g a.i/ha measured after 14 days; type: functional, organism-based
[22] = test system: Schoenoplectiella juncoides; experiment: Pre-emergence herbicidal activity against Schoenoplectiella juncoides at 2000 g a.i/ha measured after 14 days; type: functional, organism-based
[23] = test system: Pontederia vaginalis; experiment: Pre-emergence herbicidal activity against Monochoria vaginalis at 2000 g a.i/ha measured after 14 days; type: functional, organism-based
[24] = test system: Ammannia multiflora; experiment: Pre-emergence herbicidal activity against Ammannia multiflora at 2000 g a.i/ha measured after 14 days; type: functional, organism-based
[25] = test system: Rotala indica; experiment: Pre-emergence herbicidal activity against Rotala indica at 2000 g a.i/ha measured after 14 days; type: functional, organism-based
[26] = test system: Elatine triandra; experiment: Pre-emergence herbicidal activity against Elatine triandra at 2000 g a.i/ha measured after 14 days; type: functional, organism-based
[27] = test system: Lindernia procumbens; experiment: Pre-emergence herbicidal activity against Lindernia procumbens at 2000 g a.i/ha measured after 14 days; type: functional, organism-based
[28] = test system: Cyperus difformis; experiment: Pre-emergence herbicidal activity against Cyperus difformis at 2000 g a.i/ha measured after 14 days; type: functional, organism-based
[29] = test system: Eleocharis acicularis; experiment: Pre-emergence herbicidal activity against Eleocharis acicularis at 100 g a.i/ha measured after 14 days; type: functional, organism-based
[30] = test system: Oryza sativa; experiment: Phytotoxicity against Oryza sativa cv. Koshihikari (rice) at 100 g a.i/ha measured after 14 days; type: organism-based; conditions: in vivo, 336 h
[31] = test system: Schoenoplectiella juncoides; experiment: Pre-emergence herbicidal activity against Schoenoplectiella juncoides at 100 g a.i/ha measured after 14 days; type: functional, organism-based
[32] = test system: Pontederia vaginalis; experiment: Pre-emergence herbicidal activity against Monochoria vaginalis at 100 g a.i/ha measured after 14 days; type: functional, organism-based
[33] = test system: Ammannia multiflora; experiment: Pre-emergence herbicidal activity against Ammannia multiflora at 100 g a.i/ha measured after 14 days; type: functional, organism-based
[34] = test system: Rotala indica; experiment: Pre-emergence herbicidal activity against Rotala indica at 100 g a.i/ha measured after 14 days; type: functional, organism-based
[35] = test system: Elatine triandra; experiment: Pre-emergence herbicidal activity against Elatine triandra at 100 g a.i/ha measured after 14 days; type: functional, organism-based
[36] = test system: Lindernia procumbens; experiment: Pre-emergence herbicidal activity against Lindernia procumbens at 100 g a.i/ha measured after 14 days; type: functional, organism-based
[37] = test system: Cyperus difformis; experiment: Pre-emergence herbicidal activity against Cyperus difformis at 100 g a.i/ha measured after 14 days; type: functional, organism-based
[38] = test system: Echinochloa oryzicola; experiment: Pre-emergence herbicidal activity against Echinochloa oryzicola at 100 g a.i/ha measured after 14 days; type: functional, organism-based
[39] = test system: Oryza sativa; experiment: Phytotoxicity against Oryza sativa cv. Koshihikari (rice) at 500 g a.i/ha measured after 14 days; type: organism-based; conditions: in vivo, 336 h
[40] = test system: Eleocharis acicularis; experiment: Pre-emergence herbicidal activity against Eleocharis acicularis at 500 g a.i/ha measured after 14 days; type: functional, organism-based
[41] = test system: Pontederia vaginalis; experiment: Pre-emergence herbicidal activity against Monochoria vaginalis at 500 g a.i/ha measured after 14 days; type: functional, organism-based
[42] = test system: Schoenoplectiella juncoides; experiment: Pre-emergence herbicidal activity against Schoenoplectiella juncoides at 500 g a.i/ha measured after 14 days; type: functional, organism-based
[43] = test system: Ammannia multiflora; experiment: Pre-emergence herbicidal activity against Ammannia multiflora at 500 g a.i/ha measured after 14 days; type: functional, organism-based
[44] = test system: Elatine triandra; experiment: Pre-emergence herbicidal activity against Elatine triandra at 500 g a.i/ha measured after 14 days; type: functional, organism-based
[45] = test system: Rotala indica; experiment: Pre-emergence herbicidal activity against Rotala indica at 500 g a.i/ha measured after 14 days; type: functional, organism-based
[46] = test system: Lindernia procumbens; experiment: Pre-emergence herbicidal activity against Lindernia procumbens at 500 g a.i/ha measured after 14 days; type: functional, organism-based
[47] = test system: Echinochloa oryzicola; experiment: Pre-emergence herbicidal activity against Echinochloa oryzicola at 500 g a.i/ha measured after 14 days; type: functional, organism-based
[48] = test system: Cyperus difformis; experiment: Pre-emergence herbicidal activity against Cyperus difformis at 500 g a.i/ha measured after 14 days; type: functional, organism-based

Row | SMILES | Activity [1] | Activity [2] | Activity [3] | Activity [4] | Activity [5] | Activity [6] | Activity [7] | Activity [8] | Activity [9] | Activity [10] | Activity [11] | Activity [12] | Activity [13] | Activity [14] | Activity [15] | Activity [16] | Activity [17] | Activity [18] | Activity [19] | Activity [20] | further results
1 | CCCN(CC)C(=O)c1cn(C)nc1OCc1cccc(F)c1 | Non-toxic | Active | Active | Active | Active | Active | Active | Active | Active | Active | Active | Active | Active | Active | Active | Active | Active | Active | Active | Active | Activity [21]: Active; Activity [22]: Active; Activity [23]: Active; Activity [24]: Active; Activity [25]: Active; Activity [26]: Active; Activity [27]: Active; Activity [28]: Active
2 | CCCN(CC)C(=O)c1cn(C)nc1OCc1cccc(C)c1 | Non-toxic | inactive | Active | Active | Active | Active | Active | Active | Active | Active | Active | Active | Active | Active | Active | Active | Active | Active | Active | Active | Activity [22]: Active; Activity [23]: Active; Activity [24]: Active; Activity [25]: Active; Activity [26]: Active; Activity [27]: Active; Activity [28]: Active
3 | Cn1cc(C(=O)NOc2cccc(Cl)c2)c(OCc2cccc(C(F)(F)F)c2)n1 | – | – | Active | Active | Active | Active | Active | Active | Active | Active | Active | Active | Active | Active | Active | Active | Active | Active | Active | Active | Activity [29]: Active; Activity [30]: Non-toxic; Activity [31]: Active; Activity [32]: Active; Activity [33]: Active; Activity [34]: Active; Activity [35]: Active; Activity [36]: Active; Activity [37]: Active; Activity [38]: Active; Activity [39]: Non-toxic; Activity [40]: Active; Activity [41]: Active; Activity [42]: Active; Activity [43]: Active; Activity [44]: Active; Activity [45]: Active; Activity [46]: Active; Activity [47]: Active; Activity [48]: Active
